Patent US20240182443A1, “POLYMORPHIC FORMS OF COMPOUND AND PREPARATION METHOD THEREFOR AND APPLICATION THEREOF” (SHANGHAI MEIYUE BIOTECH DEVELOPMENT CO., LTD., priority 2021, published 2024)
Converted amounts (≈) assume the structure as drawn.

Key:
Assay type in all cases: physicochemical
[1] = Solubility test in biological media (SGF, FaSSIF, FeSSIF) with XRPD of samples after the test; conditions: for solubility at 0.5 h / solubility at 24 h / solubility at 2 h: thermodynamic from solid
Description: (§1) The solubility of both the crystalline forms III and VII increased with decreasing pH value of the biological medium. Both the crystalline forms were most soluble in SGF (0.323 mg/mL VS 0.183 mg/mL @ 0.5 h) and least soluble in FaSSIF (0.034 mg/mL VS 0.025 mg/mL @ 0.5 h). […] Both the crystalline forms degraded to a certain extent as the stirring continued in the solubility test. The crystalline forms of the crystalline forms III and VII in all the three biological media changed. […] Thus, the compound is unstable in biological media (Table 13).

[2] = Test for effects of humidity on crystalline forms III and VII at 40° C. (XRPD); conditions: for physical stability (XRPD) / crystalline form change (XRPD): 40° C., 23 h; for physical stability (XRPD): 70% RH; for crystalline form change (XRPD): 80% and 90% RH; for physical stability: at 70% RH or less
Description: Therefore, they were further studied at 40° C. for the effects of humidity.

[3] = HPLC purity of the solubility test samples (stability in biological media); conditions: for HPLC (24 h): calculated as 100% HPLC purity before; for HPLC purity change: all three biological media, calculated as 100% HPLC purity before standing in the media
Description: as §1

[4] = Solid stability and chemical stability of crystalline forms III and VII (60° C./sealed and 40° C./75% RH/open, 7 days; HPLC, XRPD); conditions: for chemical stability / crystalline form change (XRPD): 40° C./75% RH (open); for chemical stability / crystalline form change (XRPD) / physical and chemical stability / Purity-7 days (Area %): 7 days; for physical and chemical stability: 60° C. (sealed); for Purity-7 days (Area %) / Initial purity (Area %): HPLC; for Initial purity (Area %): before stability storage
Description: The crystalline forms III and VII were subjected to solid stability and chemical stability experiments under conditions of 60° C./sealed and 40° C./75% RH/open for 7 days. […] The amount of the crystalline form IV that formed in the crystalline form III is slightly greater than that in the crystalline form VII.

[5] = DVS (dynamic vapor sorption) hygroscopicity test with XRPD of the post-DVS sample; conditions: for hygroscopicity (DVS): within a range of 0-80% RH, 25° C.
Description: DVS tests were carried out using a dynamic vapor sorption instrument (Vsorp-Enhanced, proUmid) under the following conditions: adding a sufficient amount of a sample to the Vsorp-Enhanced instrument for simulation of dynamic vapor sorption, recording changes in weight at 25° C. with different humidity equilibrium levels, and subjecting the post-DVS test sample to an XRPD test.
The crystalline form III was characterized by XRPD, PLM, DSC, TGA and DVS. […] (FIG. 8). […] (FIG. 8). The DVS results (FIG. 9) show slight hygroscopicity at only 0.22% within a range of 0-80% RH.
The crystalline form VII was characterized by XRPD, PLM, DSC, TGA and DVS.

[6] = Competitive slurrying experiment of crystalline forms I, III, VII and IX in butanone and isopropyl acetate; conditions: VII and IX slurried with butanone and isopropyl acetate
Description: A competitive slurrying experiment was carried out by slurrying a certain amount of each of the crystalline forms I, III, VII and IX with butanone and isopropyl acetate.

crystalline form after solubility test (XRPD) ([1]; FaSSIF)	pH ([1]; FaSSIF, 0.5 h)	Solubility ([1]; FaSSIF, 2 h) [µg/mL]	pH ([1]; FaSSIF, 2 h)	pH ([1]; FaSSIF, 24 h)	pH ([1]; FeSSIF, 0.5 h)	pH ([1]; FeSSIF, 2 h)	pH ([1]; FeSSIF, 24 h)	pH ([1]; SGF, 0.5 h)	pH ([1]; SGF, 2 h)	pH ([1]; SGF, 24 h)	physical stability (XRPD) [2]	physical stability [2]	HPLC (24 h) ([3]; FaSSIF) [%]	HPLC (24 h) ([3]; FeSSIF) [%]	HPLC (24 h) ([3]; SGF) [%]	HPLC purity change [3]	SMILES	crystalline form after solubility test (XRPD) ([1]; FeSSIF)	crystalline form after solubility test (XRPD) ([1]; SGF)	crystalline form change (XRPD) [2]	other results
transformed into the crystalline form IV	6.47	9 (≈ 21.9 µM)	6.47	6.45	4.88	4.92	4.94	1.09	1.07	1.24	physically stable	physically stable	97.99	96.89	99.69	decreased to a certain extent	COc1cc2nn([C@H]3CC[C@](C)(O)CC3)cc2cc1NC(=O)c1cccc(C)[n+]1[O-] [crystalline form III, 2-((2-(trans-4-hydroxy-cis-4-methylcyclohexyl)-6-methoxy-2H-indazol-5-yl)carbamoyl)-6-methylpyridine 1-oxide]	a crystal mixture of the crystalline forms IV and XIII	transformed into the crystalline form IV	a small amount of hydrate crystalline form IV formed	solubility at 0.5 h ([1]; FaSSIF, 0.5 h): 34 µg/mL (≈ 82.8 µM); solubility at 24 h ([1]; FaSSIF, 24 h): 7 µg/mL (≈ 17.1 µM); Solubility ([1]; FeSSIF, 0.5 h): 105 µg/mL (≈ 256 µM); Solubility ([1]; FeSSIF, 2 h): 67 µg/mL (≈ 163 µM); Solubility ([1]; FeSSIF, 24 h): 58 µg/mL (≈ 141 µM); Solubility ([1]; SGF, 2 h): 289 µg/mL (≈ 704 µM); Solubility ([1]; SGF, 24 h): 89 µg/mL (≈ 217 µM); solubility at 0.5 h ([1]; SGF, simulated gastric fluid, 0.5 h): 323 µg/mL (≈ 787 µM); solubility at 0.5 h relative to crystalline form VII ([1]; all three biological media, 0.5 h): 1.5 times; chemical stability [4]: chemically stable; crystalline form change (XRPD) [4]: a small amount of hydrate crystalline form IV formed; physical and chemical stability [4]: physically and chemically stable; Purity-7 days (Area %) ([4]; 40° C./75% RH, open): 99.96 Area %; Purity-7 days (Area %) ([4]; 60° C., sealed): 99.97 Area %; Initial purity (Area %) [4]: 99.96 Area %; crystalline form after the DVS test (XRPD) [5]: transformed into a crystal mixture of the crystalline forms III and IV; hygroscopicity (DVS) [5]: 0.22%
transformed into the crystalline form IV	6.42	29 (≈ 70.7 µM)	6.44	6.48	4.86	4.90	4.91	1.23	1.16	1.26	physically stable	physically stable	93.49	93.13	99.46	decreased to a certain extent	COc1cc2nn([C@H]3CC[C@](C)(O)CC3)cc2cc1NC(=O)c1cccc(C)[n+]1[O-] [crystalline form VII, 2-((2-(trans-4-hydroxy-cis-4-methylcyclohexyl)-6-methoxy-2H-indazol-5-yl)carbamoyl)-6-methylpyridine 1-oxide]	transformed into the crystalline form IV	a crystal mixture of the crystalline forms IV and XV	a small amount of hydrate crystalline form IV formed	Solubility ([1]; FaSSIF, 0.5 h): 25 µg/mL (≈ 60.9 µM); Solubility ([1]; FaSSIF, 24 h): 7 µg/mL (≈ 17.1 µM); solubility at 0.5 h ([1]; FeSSIF, 0.5 h): 68 µg/mL (≈ 166 µM); solubility at 2 h ([1]; FeSSIF, 2 h): 65 µg/mL (≈ 158 µM); solubility at 24 h ([1]; FeSSIF, 24 h): 65 µg/mL (≈ 158 µM); Solubility ([1]; SGF, 0.5 h): 183 µg/mL (≈ 446 µM); solubility at 2 h ([1]; SGF, simulated gastric fluid, 2 h): 147 µg/mL (≈ 358 µM); solubility at 24 h ([1]; SGF, simulated gastric fluid, 24 h): 92 µg/mL (≈ 224 µM); crystalline form resulting from competitive slurrying [6]: can be produced from various slurrying processes; chemical stability [4]: chemically stable; crystalline form change (XRPD) [4]: a small amount of hydrate crystalline form IV formed; physical and chemical stability [4]: physically and chemically stable; Purity-7 days (Area %) ([4]; 40° C./75% RH, open): 99.93 Area %; Purity-7 days (Area %) ([4]; 60° C., sealed): 99.94 Area %; Initial purity (Area %) [4]: 99.92 Area %; crystalline form after the DVS test (XRPD) [5]: remained the same as that before the DVS test; hygroscopicity (DVS) [5]: 0.29%
